Measurements taken from patent US9732094B2, “Arylquinazolines” (Merck Patent GmbH, priority 2013, dated 2017).
Like-named read-outs stand apart in the source and are kept apart here.

What was measured:
DNA-PK = DNA-PK (Homo sapiens (Human), UniProt P78527); assay: DNA-PK assay (biochemical), flashplate 33P-ATP kinase assay
Method in brief: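 Reactions ran in streptavidin-coated flashplates and were halted by 200 mM EDTA, with a further 30 min at room temperature before saline washing.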

[1] = target: DNA-PK phosphorylation at serine 2056 (Homo sapiens (Human), UniProt P78527); assay: DNA-PK phosphorylation at serine 2056 (cellular), bleomycin-treated HCT116 cells, ELISA; format: cell-based; conditions: read-out: IC50 pDNA-PK
Method in brief: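 HCT116 cells grown overnight were co-treated with 10 μM bleomycin and test compound for 6 h at 37 °C. Phospho-DNA-PK was quantified by chemiluminescent ELISA and normalised to total DNA-PKcs signal, with DMSO control as blank.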

Kv11.1 (hERG) = Kv11.1 (hERG) (Homo sapiens (Human), UniProt Q12809); assay: Kv11.1 (hERG) ion channel activity (patch clamp assay), HEK293 cells transfected with hERG gene
Chain of Kv11.1 (hERG) (Q12809 whole entry): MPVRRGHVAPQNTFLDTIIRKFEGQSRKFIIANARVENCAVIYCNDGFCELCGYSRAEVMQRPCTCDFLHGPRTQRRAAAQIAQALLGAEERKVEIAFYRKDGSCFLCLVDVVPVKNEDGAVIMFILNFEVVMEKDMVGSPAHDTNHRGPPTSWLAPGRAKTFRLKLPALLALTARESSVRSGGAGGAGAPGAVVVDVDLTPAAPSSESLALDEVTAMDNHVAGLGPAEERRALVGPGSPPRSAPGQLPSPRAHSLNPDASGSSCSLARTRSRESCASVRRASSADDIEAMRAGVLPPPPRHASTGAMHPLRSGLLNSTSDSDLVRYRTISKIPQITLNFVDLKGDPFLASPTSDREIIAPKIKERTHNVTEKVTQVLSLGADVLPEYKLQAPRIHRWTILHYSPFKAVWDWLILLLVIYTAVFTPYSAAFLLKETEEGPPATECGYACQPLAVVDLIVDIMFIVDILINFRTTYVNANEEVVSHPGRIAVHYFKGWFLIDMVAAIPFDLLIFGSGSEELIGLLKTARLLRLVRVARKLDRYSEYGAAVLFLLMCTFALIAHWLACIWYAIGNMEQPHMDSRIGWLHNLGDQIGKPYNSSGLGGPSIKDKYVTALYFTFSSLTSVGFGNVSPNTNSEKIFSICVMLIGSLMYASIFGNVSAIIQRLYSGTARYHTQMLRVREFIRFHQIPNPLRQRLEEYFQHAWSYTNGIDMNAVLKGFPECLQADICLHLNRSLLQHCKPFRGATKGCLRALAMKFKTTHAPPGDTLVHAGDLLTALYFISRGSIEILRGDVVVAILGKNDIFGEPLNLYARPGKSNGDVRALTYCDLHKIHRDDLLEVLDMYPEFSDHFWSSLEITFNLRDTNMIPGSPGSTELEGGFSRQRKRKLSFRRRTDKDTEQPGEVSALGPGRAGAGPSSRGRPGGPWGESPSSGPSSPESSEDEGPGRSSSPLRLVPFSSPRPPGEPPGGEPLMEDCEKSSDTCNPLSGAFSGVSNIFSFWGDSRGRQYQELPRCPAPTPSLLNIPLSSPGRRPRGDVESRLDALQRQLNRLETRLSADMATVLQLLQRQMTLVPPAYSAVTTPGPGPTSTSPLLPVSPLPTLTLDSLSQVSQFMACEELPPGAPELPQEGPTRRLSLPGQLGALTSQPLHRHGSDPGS

[2] = cellular DNA-PK phosphorylation at serine 2056, HCT116
[3] = read-out: Ki [Kv1.11 hERG], hERG patch clamp assay (cells without asterisk)
[4] = cellular, HCT116 cells, 10 μM bleomycin, six hours
[5] = read-out: Ki [Kv1.11 hERG], patch clamp, HEK293 transfected with hERG gene
[6] = Ki [Kv1.11 hERG], hERG patch clamp assay (cells without asterisk)
[7] = read-out: Ki [Kv1.11 hERG], Table 5

IC50 (DNA-PK; biochemical DNA-PK assay) | IC50 [1, 2] | Compound | Ki (Kv11.1 (hERG); [6]) | further results
0.003 to 0.007 µM | < 0.5 µM | Cc1nccnc1Cc1ccc(F)c(-c2ncnc3cc(N4CCOCC4)ccc23)c1 [Example 349, 4-[2-Fluoro-5-(3-methyl-pyrazin-2-ylmethyl)phenyl]-7-morpholin-4-yl-quinazoline] |  | Ki (Kv11.1 (hERG); [3]): > 25 µM
 |  | N#CCCOc1ccc(C(O)c2cc(-c3ncnc4cc(N5CCOCC5)ccc34)c(F)cc2Cl)nn1 (stereo not drawn) [Example 107, 3-(6-{[2-Chloro-4-fluoro-5-(7-morpholin-4-yl-quinazolin-4-yl)-phenyl]hydroxy-methyl}pyridazin-3-yl-oxy)propionitrile] |  | IC50 (DNA-PK; enzymatic, 5 μM ATP): 0.003 to 0.007 µM; IC50 [1, 4]: 0.5 to 5 µM; Ki (Kv11.1 (hERG); [5]): > 25 µM
 |  | COc1ccnnc1C(O)c1ccc(F)c(-c2ncnc3cc(N4CCOCC4)ccc23)c1 (stereo not drawn) [Example 18, [4-Fluoro-3-(7-morpholin-4-yl-quinazolin-4-yl)phenyl]-(4-methoxy-pyridazin-3-yl)methanol] |  | IC50 (DNA-PK; enzymatic, 5 μM ATP): < 0.003 µM; IC50 [1, 4]: 0.5 to 5 µM; Ki (Kv11.1 (hERG); Ki [Kv1.11 hERG], patch clamp, HEK293 transfected with hERG gene): 15 to 25 µM
0.007 to 0.03 µM | 5 to 10 µM | OC(c1cc(-c2ncnc3cc(N4CCOCC4)ccc23)ccc1Cl)c1ncncc1F (stereo not drawn) [Example 389, [2-Chloro-5-(7-morpholin-4-yl-quinazolin-4-yl)-phenyl]-(5-fluoro-pyrimidin-4-yl)-methanol] | 10 to 15 µM | 
 |  | OC(c1cnc(F)c(-c2ncnc3cc(N4CCOCC4)ccc23)c1)c1nccs1 (stereo not drawn) [Example 180, [6-Fluoro-5-(7-morpholin-4-yl-quinazolin-4-yl)-pyridin-3-yl]thiazol-2-ylmethanol] |  | IC50 (DNA-PK; Table 5): < 0.003 µM; IC50 ([1]; Table 5, HCT116 cells): 5 to 10 µM; Ki (Kv11.1 (hERG); [7]): < 10 µM
< 0.003 µM | < 0.5 µM | OC(c1ccc(F)c(-c2ncnc3cc(N4CCOCC4)ccc23)c1)c1ncccc1Br (stereo not drawn) [Example 478, (3-bromo-pyridin-2-yl)-[4-fluoro-3-(7-morpholin-4-yl-quinazolin-4-yl)-phenyl] methanol] |  | Ki (Kv11.1 (hERG); [3]): < 10 µM
< 0.003 µM | < 0.5 µM | OC(c1ccc(F)c(-c2ncnc3cc(N4CCOCC4)ccc23)c1)c1nncc2sccc12 (stereo not drawn) [Example 333, [4-Fluoro-3-(7-morpholin-4-yl-quinazolin-4-yl)-phenyl]thieno[2,3-d}-pyridazin-4-yl-methanol] | 15 to 25 µM | 
0.003 to 0.007 µM | 5 to 10 µM | NC(=O)C(c1ccc(F)c(-c2ncnc3cc(N4CCOCC4)ccc23)c1)c1nnc(Cl)c2sccc12 (stereo not drawn) [Example 291, 2-(7-Chlorothieno-[2,3-d}pyridazin-4-yl)-2-[4-fluoro-3-(7-morpholin-4-yl-quinazolin-4-yl)-phenyl]acetamide] |  | Ki (Kv11.1 (hERG); [3]): < 10 µM
< 0.003 µM | < 0.5 µM | Cn1c(C(O)c2cc(-c3ncnc4cc(N5CCOCC5)ccc34)ccc2Cl)cccc1=O (stereo not drawn) [Example 400, 6-{[2-Chloro-5-(7-morpholin-4-yl-quinazolin-4-yl)-phenyl]hydroxy-methyl}-1-methyl-1H-pyridin-2-one] | 15 to 25 µM | 
 |  | OC(c1cc(F)c(F)c(-c2ncnc3cc(N4CCOCC4)ccc23)c1)c1nccs1 (stereo not drawn) [Example 171, [3,4-Difluoro-5-(7-morpholin-4-yl-quinazolin-4-yl)-phenyl]thiazol-2-yl-methanol] |  | IC50 (DNA-PK; Table 5): < 0.003 µM; IC50 ([1]; Table 5, HCT116 cells): 0.5 to 5 µM; Ki (Kv11.1 (hERG); [7]): < 10 µM
0.003 to 0.007 µM | 0.5 to 5 µM | Cn1c(C(O)c2cc(-c3ncnc4cc(N5CCOCC5)ccc34)ccc2F)cccc1=O (stereo not drawn) [Example 401, 6-{[2-Fluoro-5-(7-morpholin-4-yl-quinazolin-4-yl)-phenyl]hydroxy-methyl}-1-methyl-1H-pyridin-2-one] | 10 to 15 µM | 
0.007 to 0.03 µM | 10 to 30 µM | NC(=O)C(c1cccnn1)c1cc(-c2ncnc3cc(N4CCOCC4)ccc23)c(F)cc1Cl (stereo not drawn) [Example 300, 2-[2-Chloro-4-fluoro-5-(7-morpholin-4-yl-quinazolin-4-yl)-phenyl]-2-pyridazin-3-ylacetamide] |  | Ki (Kv11.1 (hERG); [3]): > 25 µM
< 0.003 µM | < 0.5 µM | OC(c1ccc(F)c(-c2ncnc3cc(N4CCOCC4)ccc23)c1)c1ncnn2cccc12 (stereo not drawn) [Example 345, [4-Fluoro-3-(7-morpholin-4-yl-quinazolin-4-yl)-phenyl]pyrrolo[2,1-f]-[1,2,4]triazin-4-yl-methanol] |  | Ki (Kv11.1 (hERG); [3]): < 10 µM
 |  | CCn1nc(C(O)c2cc(-c3ncnc4cc(N5CCOCC5)ccc34)c(F)cc2Cl)ccc1=O (stereo not drawn) [Example 96, 6{[2-Chloro-4-fluoro-5-(7-morpholin-4-yl-quinazolin-4-yl)phenyl]-hydroxymethyl}-2-ethyl-2H-pyridazin-3-one] |  | IC50 (DNA-PK; enzymatic, 5 μM ATP): 0.007 to 0.03 µM; IC50 [1, 4]: 0.5 to 5 µM; Ki (Kv11.1 (hERG); [5]): > 25 µM
< 0.003 µM | < 0.5 µM | COc1nccnc1C(O)c1cc(-c2ncnc3cc(N4CCOCC4)ccc23)c(F)cc1F (stereo not drawn) [Example 454, [2,4-Difluoro-5-(7-morpholin-4-yl-quinazolin-4-yl)-phenyl]-(3-methoxy-pyrazin-2-yl)-methanol] |  | Ki (Kv11.1 (hERG); [3]): > 25 µM
 |  | OC(c1cn2ccnc2cn1)c1cc(-c2ncnc3cc(N4CCOCC4)ccc23)c(F)cc1F (stereo not drawn) [Example 223, [2,4-Difluoro-5-(7-morpholin-4-yl-quinazolin-4-yl)-phenyl]imidazo-[1,2-a]pyrazin-6-yl-methanol] |  | IC50 (DNA-PK; Table 7): 0.007 to 0.03 µM; IC50 ([1]; Table 7, HCT116 cells): 0.5 to 5 µM; Ki (Kv11.1 (hERG); read-out: Ki [Kv1.11 hERG], Table 7): > 25 µM
< 0.003 µM | 0.5 to 5 µM | OC(c1ccc(F)c(-c2ncnc3cc(N4CCOCC4)ccc23)c1)c1nnc2ccccn12 (stereo not drawn) [Example 343, [4-Fluoro-3-(7-morpholin-4-yl-quinazolin-4-yl)-phenyl]-[1,2,4]-triazolo[4,3-a]pyridin-3-ylmethanol] | 15 to 25 µM | 
0.007 to 0.03 µM | 5 to 10 µM | Cc1nccnc1C(C(N)=O)c1cc(-c2ncnc3cc(N4CCOCC4)ccc23)ccc1Cl (stereo not drawn) [Example 303, 2-[2-Chloro-5-(7-morpholin-4-yl-quinazolin-4-yl)-phenyl]-2-(3-methyl-pyrazin-2-yl)-acetamide] | 15 to 25 µM | 
 |  | NCCn1nc(C(O)c2cc(-c3ncnc4cc(N5CCOCC5)ccc34)c(F)cc2Cl)ccc1=O (stereo not drawn) [Example 94, 2-(2-Amino-ethyl)-6-{[2-Chloro-4-fluoro-5-(7-morpholin-4-yl-quinazolin-4-yl)phenyl]-hydroxymethyl}-2H-pyridazin-3-one] |  | IC50 (DNA-PK; enzymatic, 5 μM ATP): 0.007 to 0.03 µM; IC50 [1, 4]: 10 to 30 µM; Ki (Kv11.1 (hERG); [5]): > 25 µM
< 0.003 µM | < 0.5 µM | OC(c1cc(-c2ncnc3cc(N4CCOCC4)ccc23)c(F)cc1Cl)c1nccn2cccc12 (stereo not drawn) [Example 359, [2-Chloro-4-fluoro-5-(7-morpholin-4-yl-quinazolin-4-yl)-phenyl]pyrrolo[1,2-a]-pyrazin-1-ylmethanol] |  | Ki (Kv11.1 (hERG); [3]): < 10 µM
 |  | OC(c1cccc(-c2ncnc3cc(N4CCOCC4)ccc23)c1)c1nccs1 (stereo not drawn) [Example 150, [3-(7-Morpholin-4-ylquinazolin-4-yl)-phenyl]thiazol-2-yl-methanol] |  | IC50 (DNA-PK; Table 5): 0.007 to 0.03 µM; IC50 ([1]; Table 5, HCT116 cells): 5 to 10 µM; Ki (Kv11.1 (hERG); [7]): > 25 µM
 |  | OC(c1ccc(F)c(-c2ncnc3cc(N4CCOCC4)sc23)c1)c1nccs1 (racemic) [Example 144, [4-fluoro-3-(6-morpholin-4-ylthieno[3,2-d]pyrimidin-4-yl)phenyl]thiazol-2-ylmethanol] |  | IC50 (DNA-PK; Table 5): < 0.003 µM; IC50 ([1]; Table 5, HCT116 cells): 0.5 to 5 µM; Ki (Kv11.1 (hERG); human, HEK293 cells stably transfected with the hERG gene, Ki [Kv1.11 hERG], Table 5): 15 to 25 µM
 |  | OC(c1cnc(F)c(-c2ncnc3cc(N4CCOCC4)ccc23)c1)c1nccs1 (stereo not drawn) [Example 189, [6-Fluoro-5-(7-morpholin-4-yl-quinazolin-4-yl)-pyridin-3-yl]thiazol-2-ylmethanol] |  | IC50 (DNA-PK; Table 5): 0.003 to 0.007 µM; IC50 ([1]; Table 5, HCT116 cells): 0.5 to 5 µM; Ki (Kv11.1 (hERG); Ki [Kv1.11 hERG], Table 5): 15 to 25 µM
0.007 to 0.03 µM | 0.5 to 5 µM | COc1nccnc1C(C(N)=O)c1cc(-c2ncnc3cc(N4CCOCC4)cc(F)c23)c(F)cc1Cl (stereo not drawn) [Example 261, 2-[2-Chloro-4-fluoro-5-(5-fluoro-7-morpholin-4-yl-quinazolin-4-yl)-phenyl]-2-(3-methoxy-pyrazin-2-yl)acetamide] | 15 to 25 µM | 
0.007 to 0.03 µM | 0.5 to 5 µM | Cc1cc(C(O)c2cc(-c3ncnc4cc(N5CCOCC5)ccc34)c(F)cc2Cl)n(C)c(=O)c1 (stereo not drawn) [Example 339, 6-{[2-Chloro-4-fluoro-5-(7-morpholin-4-yl-quinazolin-4-yl)-phenyl]hydroxy-methyl}-1,4-dimethyl-1H-pyridin-2-one] |  | Ki (Kv11.1 (hERG); [3]): > 25 µM
 |  | OC(c1cc(F)c(F)c(-c2ncnc3cc(N4CCOCC4)ccc23)c1)c1nccs1 (stereo not drawn) [Example 178, [3,4-Difluoro-5-(7-morpholin-4-yl-quinazolin-4-yl)-phenyl)thiazol-2-yl-methanol] |  | IC50 (DNA-PK; Table 5): < 0.003 µM; IC50 ([1]; Table 5, HCT116 cells): 0.5 to 5 µM; Ki (Kv11.1 (hERG); [7]): > 25 µM

Compound | IC50 (DNA-PK; biochemical DNA-PK assay) | IC50 [1, 2] | Ki (Kv11.1 (hERG); [6]) | further results
COc1nccnc1[C@@H](O)c1cc(-c2ncnc3cc(N4CCOCC4)ccc23)c(F)cc1Cl [Example 456, (S)-(2-Chloro-4-fluoro-5-(7-morprholin-4-yl-quinazolin-4-yl)-pnenyl]-(3-methoxy-pyrazin-2-yl)-methanol] | < 0.003 µM | < 0.5 µM | 10 to 15 µM | 
OC(c1ccc(F)c(-c2ncnc3cc(N4CCOCC4)ccc23)c1)c1nccnc1OC(F)F (stereo not drawn) [Example 464, (3-Difluoromethoxy-pyrazin-2-yl)-[4-fluoro-3-(7-morpholin-4-yl-quinazolin-4-yl)-phenyl]methanol] | 0.003 to 0.007 µM | 0.5 to 5 µM | 15 to 25 µM | 
